Data from patent US6706740B2, “Fungicidal heterocyclic aromatic amides and their compositions, methods of use and preparation” (Dow AgroSciences LLC, priority 1999, dated 2004).

tested on: Erysiphe graminis—ERYSGT; test: Powdery Mildew of Wheat, in vivo whole plant, 24 Hour Protectant; details: Erysiphe; 100 ppm spray, wheat, 24 hour protectant, % control of fungal infection vs untreated plants; read-out: ERYSGT in vivo 1 Day Protectant

Row | SMILES | pest or weed control at 100 ppm
1 | COc1ccnc(C(=O)N[C@H]2COC(=O)[C@H](Cc3ccccc3)[C@@H](OC(=O)C(C)C)[C@H](C)OC2=O)c1OC(=O)c1cccs1 [Compound 674] | < 25%

same assay, conditions: Erysiphe; 100 ppm spray, wheat, 24 hour protectant; control of fungal infection vs untreated plants; read-out: ERYSGT in vivo 1 Day Protectant

Row | SMILES | pest or weed control at 100 ppm
2 | COc1ccnc(C(=O)Nc2ccc(Oc3ccccc3C#N)cc2)c1O [Compound 420] | < 25%
3 | COc1ccnc(C(=O)N[C@H](C(=O)O[C@@H](C)[C@H](OC(=O)C(C)C)[C@@H](Cc2ccccc2)C(=O)OCc2ccccc2)[C@@H](C)OC(C)=O)c1O [Compound 361] | < 25%
4 | COC(=O)C(COC(=O)C(COC(=O)C(C)C)Cc1ccccc1)NC(=O)c1nccc(OC)c1O (centres unmarked) [Compound 349] | < 25%

tested on: Mycosphaerella graminicola (Septoria tritici—SEPTTR); test: In vitro fungal growth inhibition, Mycosphaerella graminicola (SEPTTR); type: cell-based; details: Zymoseptoria tritici; 25 ppm in growth medium; read-out: SEPTTR in vitro Growth Inhibition

Row | SMILES | inhibition at 25 ppm
5 | COc1ccnc(C(=O)Nc2ccc(Oc3ccccc3C#N)cc2)c1O [Compound 420] | < 80%
6 | COc1ccnc(C(=O)N[C@H](C(=O)O[C@@H](C)[C@H](OC(=O)C(C)C)[C@@H](Cc2ccccc2)C(=O)OCc2ccccc2)[C@@H](C)OC(C)=O)c1O [Compound 361] | > 80%
7 | COC(=O)C(COC(=O)C(COC(=O)C(C)C)Cc1ccccc1)NC(=O)c1nccc(OC)c1O (centres unmarked) [Compound 349] | < 80%
8 | COc1ccnc(C(=O)N[C@H]2COC(=O)[C@H](Cc3ccccc3)[C@@H](OC(=O)C(C)C)[C@H](C)OC2=O)c1OC(=O)c1cccs1 [Compound 674] | > 80%

tested on: Rhizoctonia solani (RHIZSO); test: microbe, parasite or virus in culture; type: cell-based; details: Rhizoctonia solani, read-out: RHIZSO in vitro Growth Inhibition

Row | SMILES | inhibition at 25 ppm
9 | COc1ccnc(C(=O)Nc2ccc(Oc3ccccc3C#N)cc2)c1O [Compound 420] | < 80%
10 | COc1ccnc(C(=O)N[C@H](C(=O)O[C@@H](C)[C@H](OC(=O)C(C)C)[C@@H](Cc2ccccc2)C(=O)OCc2ccccc2)[C@@H](C)OC(C)=O)c1O [Compound 361] | < 80%
11 | COC(=O)C(COC(=O)C(COC(=O)C(C)C)Cc1ccccc1)NC(=O)c1nccc(OC)c1O (centres unmarked) [Compound 349] | < 80%
12 | COc1ccnc(C(=O)N[C@H]2COC(=O)[C@H](Cc3ccccc3)[C@@H](OC(=O)C(C)C)[C@H](C)OC2=O)c1OC(=O)c1cccs1 [Compound 674] | < 80%

tested on: Phytophthora infestans—PHYTIN; test: whole plant or invertebrate; type: in vivo; details: Phytophthora, in Solanum lycopersicum, 24 h, read-out: PHYTIN in vivo 1 Day Protectant

Row | SMILES | pest or weed control at 100 ppm
13 | COc1ccnc(C(=O)Nc2ccc(Oc3ccccc3C#N)cc2)c1O [Compound 420] | < 25%
14 | COc1ccnc(C(=O)N[C@H](C(=O)O[C@@H](C)[C@H](OC(=O)C(C)C)[C@@H](Cc2ccccc2)C(=O)OCc2ccccc2)[C@@H](C)OC(C)=O)c1O [Compound 361] | < 25%
15 | COC(=O)C(COC(=O)C(COC(=O)C(C)C)Cc1ccccc1)NC(=O)c1nccc(OC)c1O (centres unmarked) [Compound 349] | < 25%
16 | COc1ccnc(C(=O)N[C@H]2COC(=O)[C@H](Cc3ccccc3)[C@@H](OC(=O)C(C)C)[C@H](C)OC2=O)c1OC(=O)c1cccs1 [Compound 674] | < 25%

tested on: Ustilago maydis (USTIMA); test: microbe, parasite or virus in culture; type: cell-based; details: Mycosarcoma maydis, read-out: USTIMA in vitro Growth Inhibition

Row | SMILES | inhibition at 25 ppm
17 | COc1ccnc(C(=O)Nc2ccc(Oc3ccccc3C#N)cc2)c1O [Compound 420] | < 80%
18 | COc1ccnc(C(=O)N[C@H](C(=O)O[C@@H](C)[C@H](OC(=O)C(C)C)[C@@H](Cc2ccccc2)C(=O)OCc2ccccc2)[C@@H](C)OC(C)=O)c1O [Compound 361] | < 80%
19 | COC(=O)C(COC(=O)C(COC(=O)C(C)C)Cc1ccccc1)NC(=O)c1nccc(OC)c1O (centres unmarked) [Compound 349] | < 80%
20 | COc1ccnc(C(=O)N[C@H]2COC(=O)[C@H](Cc3ccccc3)[C@@H](OC(=O)C(C)C)[C@H](C)OC2=O)c1OC(=O)c1cccs1 [Compound 674] | < 80%

tested on: Leptosphaeria nodorum—LEPTNO; test: Glume Blotch of Wheat, in vivo whole plant, 24 Hour Protectant; details: Leptosphaeria; 100 ppm spray, wheat, 24 hour protectant, % control of fungal infection vs untreated plants; read-out: LEPTNO in vivo 1 Day Protectant

Row | SMILES | pest or weed control at 100 ppm
21 | COc1ccnc(C(=O)N[C@H]2COC(=O)[C@H](Cc3ccccc3)[C@@H](OC(=O)C(C)C)[C@H](C)OC2=O)c1OC(=O)c1cccs1 [Compound 674] | 25 to 74%

same assay, conditions: Leptosphaeria; 100 ppm spray, wheat, 24 hour protectant; control of fungal infection vs untreated plants; read-out: LEPTNO in vivo 1 Day Protectant

Row | SMILES | pest or weed control at 100 ppm
22 | COc1ccnc(C(=O)Nc2ccc(Oc3ccccc3C#N)cc2)c1O [Compound 420] | 25 to 74%
23 | COc1ccnc(C(=O)N[C@H](C(=O)O[C@@H](C)[C@H](OC(=O)C(C)C)[C@@H](Cc2ccccc2)C(=O)OCc2ccccc2)[C@@H](C)OC(C)=O)c1O [Compound 361] | 25 to 74%
24 | COC(=O)C(COC(=O)C(COC(=O)C(C)C)Cc1ccccc1)NC(=O)c1nccc(OC)c1O (centres unmarked) [Compound 349] | < 25%

tested on: Stagonospora nodorum (Leptosphaeria nodorum—LEPTNO); test: In vitro fungal growth inhibition, Stagonospora nodorum (LEPTNO); type: cell-based; details: Leptosphaeria; 25 ppm in growth medium; read-out: LEPTNO in vitro Growth Inhibition

Row | SMILES | inhibition at 25 ppm
25 | COc1ccnc(C(=O)Nc2ccc(Oc3ccccc3C#N)cc2)c1O [Compound 420] | < 80%
26 | COc1ccnc(C(=O)N[C@H](C(=O)O[C@@H](C)[C@H](OC(=O)C(C)C)[C@@H](Cc2ccccc2)C(=O)OCc2ccccc2)[C@@H](C)OC(C)=O)c1O [Compound 361] | < 80%
27 | COC(=O)C(COC(=O)C(COC(=O)C(C)C)Cc1ccccc1)NC(=O)c1nccc(OC)c1O (centres unmarked) [Compound 349] | < 80%
28 | COc1ccnc(C(=O)N[C@H]2COC(=O)[C@H](Cc3ccccc3)[C@@H](OC(=O)C(C)C)[C@H](C)OC2=O)c1OC(=O)c1cccs1 [Compound 674] | > 80%

tested on: Septoria tritici—SEPTTR; test: Leaf Blotch of Wheat, in vivo whole plant, 24 Hour Protectant; details: 100 ppm spray, wheat, 24 hour protectant, % control of fungal infection vs untreated plants

Row | SMILES | SEPTTR in vivo 1 Day Protectant
29 | COc1ccnc(C(=O)N[C@H]2COC(=O)[C@H](Cc3ccccc3)[C@@H](OC(=O)C(C)C)[C@H](C)OC2=O)c1OC(=O)c1cccs1 [Compound 674] | + +

same assay, conditions: Zymoseptoria tritici, 24 h, 100 ppm spray, wheat, 24 hour protectant; control of fungal infection vs untreated plants; read-out: SEPTTR in vivo 1 Day Protectant

Row | SMILES | pest or weed control at 100 ppm
30 | COc1ccnc(C(=O)Nc2ccc(Oc3ccccc3C#N)cc2)c1O [Compound 420] | < 25%
31 | COc1ccnc(C(=O)N[C@H](C(=O)O[C@@H](C)[C@H](OC(=O)C(C)C)[C@@H](Cc2ccccc2)C(=O)OCc2ccccc2)[C@@H](C)OC(C)=O)c1O [Compound 361] | < 25%
32 | COC(=O)C(COC(=O)C(COC(=O)C(C)C)Cc1ccccc1)NC(=O)c1nccc(OC)c1O (centres unmarked) [Compound 349] | < 25%

tested on: Puccinia recondita—PUCCRT; test: Brown Rust of Wheat, in vivo whole plant, 24 Hour Protectant; details: 100 ppm spray, wheat, 24 hour protectant, % control of fungal infection vs untreated plants

Row | SMILES | PUCCRT in vivo 1 Day Protectant
33 | COc1ccnc(C(=O)N[C@H]2COC(=O)[C@H](Cc3ccccc3)[C@@H](OC(=O)C(C)C)[C@H](C)OC2=O)c1OC(=O)c1cccs1 [Compound 674] | + +

same assay, conditions: 100 ppm spray, wheat, 24 hour protectant; control of fungal infection vs untreated plants

Row | SMILES | PUCCRT in vivo 1 Day Protectant
34 | COc1ccnc(C(=O)N[C@H](C(=O)O[C@@H](C)[C@H](OC(=O)C(C)C)[C@@H](Cc2ccccc2)C(=O)OCc2ccccc2)[C@@H](C)OC(C)=O)c1O [Compound 361] | + +
35 | COC(=O)C(COC(=O)C(COC(=O)C(C)C)Cc1ccccc1)NC(=O)c1nccc(OC)c1O (centres unmarked) [Compound 349] | + +

same assay, conditions: Puccinia; 100 ppm spray, wheat, 24 hour protectant; control of fungal infection vs untreated plants; read-out: PUCCRT in vivo 1 Day Protectant

Row | SMILES | pest or weed control at 100 ppm
36 | COc1ccnc(C(=O)Nc2ccc(Oc3ccccc3C#N)cc2)c1O [Compound 420] | < 25%

tested on: Phytophthora infestans (PHYTIN); test: microbe, parasite or virus in culture; type: cell-based; details: Phytophthora infestans, read-out: PHYTIN in vitro Growth Inhibition

Row | SMILES | inhibition at 25 ppm
37 | COc1ccnc(C(=O)Nc2ccc(Oc3ccccc3C#N)cc2)c1O [Compound 420] | < 80%
38 | COc1ccnc(C(=O)N[C@H](C(=O)O[C@@H](C)[C@H](OC(=O)C(C)C)[C@@H](Cc2ccccc2)C(=O)OCc2ccccc2)[C@@H](C)OC(C)=O)c1O [Compound 361] | > 80%
39 | COC(=O)C(COC(=O)C(COC(=O)C(C)C)Cc1ccccc1)NC(=O)c1nccc(OC)c1O (centres unmarked) [Compound 349] | < 80%
40 | COc1ccnc(C(=O)N[C@H]2COC(=O)[C@H](Cc3ccccc3)[C@@H](OC(=O)C(C)C)[C@H](C)OC2=O)c1OC(=O)c1cccs1 [Compound 674] | < 80%

tested on: Magnaporthe grisea (Pyricularia oryzae—PYRIOR); test: microbe, parasite or virus in culture; type: cell-based; details: Pyricularia oryzae, read-out: PYRIOR in vitro Growth Inhibition

Row | SMILES | inhibition at 25 ppm
41 | COc1ccnc(C(=O)Nc2ccc(Oc3ccccc3C#N)cc2)c1O [Compound 420] | < 80%
42 | COc1ccnc(C(=O)N[C@H](C(=O)O[C@@H](C)[C@H](OC(=O)C(C)C)[C@@H](Cc2ccccc2)C(=O)OCc2ccccc2)[C@@H](C)OC(C)=O)c1O [Compound 361] | > 80%
43 | COC(=O)C(COC(=O)C(COC(=O)C(C)C)Cc1ccccc1)NC(=O)c1nccc(OC)c1O (centres unmarked) [Compound 349] | < 80%
44 | COc1ccnc(C(=O)N[C@H]2COC(=O)[C@H](Cc3ccccc3)[C@@H](OC(=O)C(C)C)[C@H](C)OC2=O)c1OC(=O)c1cccs1 [Compound 674] | < 80%
